In patent US10939680B2, “Herbicidal composition” (priority 2014, dated 2021):

What was measured:
[1] = system: blackgrass (Alopecurus myosuroides); experiment: Efficiency test of the herbicidal composition on blackgrass in field crops; type: in vivo; conditions: for percentage of weeds eliminated, Trial No. ALS12H48 -05: 44 DAA; for percentage of weeds eliminated, Trial No. ALS11H56-01: 50 DAA; for Maximum percentage of weeds eliminated: maximum of the trials; for Maximum percentage of weeds eliminated / Minimum percentage of weeds eliminated: 44-50 DAA; for Minimum percentage of weeds eliminated: minimum of the trials
Experimental: Trials were also carried out to show the efficiency of the herbicidal composition referred to in the invention on a second weed called blackgrass. This plant is an annual plant and has traditionally been seen as a weed in cultivated fields.
The composition was tested on crops including crops of beetroot (Sugar beet, Beta vulgaris), oilseed rape (OSR, Brassica napus).
The same compounds that were used in Example 1 were evaluated for efficiency.
In the same manner as for Example 1, different trials were carried out in different fields, in each which a plant of interest was cultivated.
In this example, tests were carried out on two plots of oilseed rape, on the one hand, and in a lot of beetroot on the other hand.
The efficiency of different products and the herbicidal composition referred to in the invention have been evaluated at different intervals following the application (DAA) of the aforementioned products onto the crop in question.
For example, the efficiency of products has been measured at 44, 46 and 50 days following application of the products.

[2] = system: rye-grass (Lolium multiflorum); experiment: Efficiency test of the herbicidal composition on rye-grass in oilseed rape fields; type: in vivo; conditions: for percentage of weeds eliminated, Trial ALS11H56-02 / percentage of weeds eliminated, Trial ALS11H56-04 / percentage of weeds eliminated, Trial ALS12H56-03: crop OSR; for percentage of weeds eliminated, Trial ALS11H56-02 / percentage of weeds eliminated, Trial ALS11H56-04: 53 DAA; for percentage of weeds eliminated, Trial ALS12H56-03: 58 DAA; for Maximum percentage of weeds eliminated: maximum of three OSR trials; for Maximum percentage of weeds eliminated / Minimum percentage of weeds eliminated: 53-58 DAA; for Minimum percentage of weeds eliminated: minimum of three OSR trials
Excerpt: This plant, also called […] or Italian rye-grass (Lolium multiflorum) is traditionally considered to be a pest.
The composition has been tested on different parcels of oilseed rape (OSR for Oilseed rape, Brassica napus).
Findings relating to damages caused by the different compounds that were trialed are set out in percentages of weeds eliminated from 0 to 100% with respect to a trialed lot in which no herbicidal treatment was applied. The number, 0, corresponds to no observed damage to weeds whereas the number, 100, corresponds to an elimination of the entirety of the weeds.
Further, a volume of 0.8 L of the aforementioned composition has been applied per hectare to the treated lot.
Quizalofop-p-ethyl and flauzifop-p-butyl belong to the aryloxyphenoxypropionate family. A volume of 1.2 L of quizalofop-p-ethyl per hectare and a volume of 1.5 L of flauzifop-p-butyl per hectare have respectively been applied.
The compositions—ALSNC10HCLQ01 0.8 and Q+C 1:1 (0.4-0.5 liters per hectare) and quizalofop-p-ethyl (1.2 liters per hectare) which were tested have been diluted, prior to their application, in 1 L of adjuvant oil (Actirob).
Different trials have been conducted in different fields where oilseed rape (OSR) is grown. The efficiency of different products and of the herbicidal composition referred to in the invention have been evaluated at different time intervals following the application of the said products to the crop in question (DAA means “days after application”). For example, the efficiency of products has been measured 53 and 58 days after application to the field of oilseed rape. These intervals following application of the composition are necessary and adequate to enable the ultimate efficiency of the trialed products to be judged.

Row | SMILES | percentage of weeds eliminated, Trial No. ALS12H48 -05 ([1]; crop OSR) [%] | percentage of weeds eliminated, Trial No. ALS11H42-02 ([1]; crop OSR, 46 DAA) [%] | percentage of weeds eliminated, Trial No. ALS11H56-01 ([1]; crop OSR) [%] | Maximum percentage of weeds eliminated [1] [%] | Minimum percentage of weeds eliminated [1] [%] | percentage of weeds eliminated, Trial ALS11H56-02 [2] [%] | percentage of weeds eliminated, Trial ALS11H56-04 [2] [%] | percentage of weeds eliminated, Trial ALS12H56-03 [2] [%] | Maximum percentage of weeds eliminated [2] [%] | Minimum percentage of weeds eliminated [2] [%]
1 | CCOC(=O)[C@@H](C)Oc1ccc(Oc2cnc3cc(Cl)ccc3n2)cc1 [quizalofop-p-ethyl] | 50 | 30 | 63 | 63 | 30 | 26 | 76 | 68 | 76 | 26
2 | CCCCOC(=O)[C@@H](C)Oc1ccc(Oc2ccc(C(F)(F)F)cn2)cc1 [flauzifop-p-butyl] | 52 |  | 76 | 76 | 52 | 3 | 66 | 46 | 66 | 3
